In patent publication US6875760B2 (Novo Nordisk A/S, priority 1999, dated 2005):

biological target: T1, cloned human glucagon receptor (Homo sapiens, UniProt P47871); experiment: Glucagon Binding Assay (II); conditions: plasma membranes of BHK cells expressing the receptor; read-out: Glu Bd Assay (II) IC50
T1 construct: expressed in transfected cells; plasma membrane preparation
T1 sequence (P47871 26-477): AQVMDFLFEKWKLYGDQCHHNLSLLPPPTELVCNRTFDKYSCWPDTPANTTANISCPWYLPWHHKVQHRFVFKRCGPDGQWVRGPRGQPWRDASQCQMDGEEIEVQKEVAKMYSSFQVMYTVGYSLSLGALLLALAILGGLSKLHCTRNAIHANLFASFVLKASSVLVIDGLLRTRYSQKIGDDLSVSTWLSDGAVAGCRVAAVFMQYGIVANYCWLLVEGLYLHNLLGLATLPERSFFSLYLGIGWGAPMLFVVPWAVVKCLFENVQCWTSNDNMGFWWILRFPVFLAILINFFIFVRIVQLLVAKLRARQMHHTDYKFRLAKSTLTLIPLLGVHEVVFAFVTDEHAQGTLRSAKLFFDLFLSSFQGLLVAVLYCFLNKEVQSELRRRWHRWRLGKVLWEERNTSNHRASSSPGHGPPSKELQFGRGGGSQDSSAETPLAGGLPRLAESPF

Question: With `O=C(O)CCNC(=O)c1ccc(CN(C(=O)NCc2cc(Cl)cc(Cl)c2)c2ccc(C3CCCCC3)cc2)cc1` [Example 395, 3-{4-[1-(4-Cyclohexylphenyl)-3-(3,5-dichlorobenzyl)ureidomethyl]benzoylamino}propionic acid] as the compound, how does the IC50 read?
Answer: 153 nM

Question: Which IC50 does the source give for `O=C(Nc1nn[nH]n1)c1ccc(CN(C(=O)Nc2ccc3c(c2)OC(F)(F)C(F)(F)O3)c2ccc(C3CCCCC3)cc2)cc1` [Example 396, 4-[1-(4-Cyclohexylphenyl)-3-(2,2,3,3-tetrafluoro-2,3-dihydrobenzo[1,4]dioxin-6-yl)ureidomethyl]-N-(2H-tetrazol-5-yl)benzamide] here?
Answer: 13 nM

Question: With `O=C(O)CCNC(=O)c1ccc(CN(Cc2ccc(OC(F)(F)F)cc2)[C@H]2CC[C@@H](C3CCCCC3)CC2)cc1` [Example 570, 3-(4-{[(cis-4-Cyclohexylcyclohexyl)-(4-trifluoromethoxybenzyl)amino]methyl}benzoylamino)propionic acid] as the compound, how does the IC50 read?
Answer: 44 nM

Question: Which IC50 does the source give for `O=C(Nc1nn[nH]n1)c1ccc(CN(Cc2ccc(OC(F)(F)F)cc2)[C@H]2CC[C@@H](C3CCCCC3)CC2)cc1` [Example 572, 4-({(4-cis-Cyclohexylcyclohexyl)-[4-(trifluoromethoxy)benzyl]amino}methyl)-N-(2H-tetrazol-5-yl)benzamide] here?
Answer: 166 nM

Question: `O=C(NCc1nn[nH]n1)c1ccc(CN(Cc2ccc(OC(F)(F)F)cc2)[C@H]2CC[C@@H](C3CCCCC3)CC2)cc1` [Example 573, 4-({(4-cis-Cyclohexylcyclohexyl)-[4-(trifluoromethoxy)benzyl]amino}methyl)-N-(2H-tetrazol-5-ylmethyl)benzamide] was tested. Which IC50 did it give?
Answer: 152 nM

Question: For `O=C(Nc1nn[nH]n1)c1ccc(CN(Cc2ccc(OC(F)(F)F)cc2)[C@H]2CC[C@H](C3CCCCC3)CC2)cc1` [Example 574, 4-({(trans-4-Cyclohexylcyclohexyl)-[4-(trifluoromethoxy)benzyl]amino}methyl)-N-(2H-tetrazol-5-yl)benzamide], which IC50 is on record?
Answer: 159 nM

Question: For `O=C(Nc1nn[nH]n1)c1ccc(CN(C(=O)Nc2ccc(OC(F)(F)F)cc2)[C@H]2CC[C@@H](C3CCCCC3)CC2)cc1` [Example 575, 4-[1-(4-cis-Cyclohexylcyclohexyl)-3-(4-trifluoromethoxyphenyl)ureidomethyl]-N-(2H-tetrazol-5-yl)benzamide], which IC50 is on record?
Answer: 15 nM

Question: How did the IC50 turn out when `O=C(Nc1nn[nH]n1)c1ccc(CN(C(=O)Nc2ccc(OC(F)(F)F)cc2)[C@H]2CC[C@H](C3CCCCC3)CC2)cc1` [Example 576, 4-[1-(4-trans-Cyclohexylcyclohexyl)-3-(4-trifluoromethoxyphenyl)ureidomethyl]-N-(2H-tetrazol-5-yl)benzamide] was run?
Answer: 4 nM

Question: Which IC50 does the source give for `O=C(O)CCNC(=O)c1ccc(CN(C(=O)Nc2ccc(OC(F)(F)F)cc2)C2CCC(C3CCCCC3)CC2)cc1` (stereo not drawn) [Example 577, 3-{4-[1-(4-Cyclohexylcyclohexyl)-3-(4-trifluoromethoxyphenyl)ureidomethyl]benzoylamino}propionic acid] here?
Answer: 18 nM

Question: With `CC(C)(C)[C@H]1CC[C@H](N(Cc2ccc(C(=O)NCCC(=O)O)cc2)Cc2cc(Cl)cc(Cl)c2)CC1` [Example 580, 3-(4-{[(trans-4-tert-Butylcyclohexyl)-(3,5-dichlorobenzyl)amino]methyl}benzoylamino)propionic acid] as the compound, how does the IC50 read?
Answer: 57 nM

Question: For `O=C(O)CCNC(=O)c1ccc(CN(Cc2cccc(Br)c2)c2ccc(C3CCCCC3)cc2)cc1` [Example 581, 3-(4-{[(3-Bromobenzyl)-(4-cyclohexylphenyl)amino]methyl}benzoylamino)propionic acid], which IC50 is on record?
Answer: 142 nM

Question: `O=C(O)CCNC(=O)c1ccc(CN(Cc2cc(Cl)cc(Cl)c2)c2ccc(C3CCCCC3)cc2)cc1` [Example 582, 3-(4-{[(4-Cyclohexylphenyl)-(3,5-dichlorobenzyl)amino}methyl]benzoylamino)propionic acid] was tested. Which IC50 did it give?
Answer: 108 nM

Question: With `O=C(O)CCNC(=O)c1ccc(CN(Cc2cccc(Cl)c2)c2ccc(C3CCCCC3)cc2)cc1` [Example 583] as the compound, how does the IC50 read?
Answer: 205 nM

Question: For `O=C(Nc1nn[nH]n1)c1ccc(CN(Cc2cccc(Br)c2)c2ccc(C3CCCCC3)cc2)cc1` [Example 584, 4-{[(3-Bromobenzyl)-(4-cyclohexylphenyl)amino]methyl}-N-(2H-tetrazol-5-yl)benzamide], which IC50 is on record?
Answer: 284 nM

Question: With `O=C(Nc1nn[nH]n1)c1ccc(CN(Cc2cccc(Cl)c2)c2ccc(C3CCCCC3)cc2)cc1` [Example 585, 4-{[(3-Chlorobenzyl)-(4-cyclohexylphenyl)amino]methyl}-N-(2H-tetrazol-5-yl)benzamide] as the compound, how does the IC50 read?
Answer: 322 nM

Question: `CC(C)(C)[C@H]1CC[C@H](N(Cc2ccc(C(=O)NCCC(=O)O)cc2)C(=O)c2ccc(OC(F)(F)F)cc2)CC1` [Example 586, 3-(4-{[(trans-4-tert-Butylcyclohexyl)-(4-trifluoromethoxybenzoyl)amino]methyl}benzoylamino)propionic acid] was tested. Which IC50 did it give?
Answer: 874 nM

Question: `CCCCOc1ccc(C(=O)NN(Cc2ccc(C(=O)NCCC(=O)O)cc2)C2Cc3ccccc3C2)cc1` [Example 587, 3-{4-[N′-(4-Butoxybenzoyl)-N-indan-2-ylhydrazinomethyl]benzoylamino}propionic acid] was tested. Which IC50 did it give?
Answer: 692 nM

Question: Which IC50 does the source give for `CC(C)(C)[C@H]1CC[C@@H](N(Cc2ccc(C(=O)NCCC(=O)O)cc2)NC(=O)c2cc(Cl)cc(Cl)c2)CC1` [Example 588, 3-{4-[N-(cis-4-tert-Butylcyclohexyl)-N′-(3,5-dichlorobenzoyl)hydrazinomethyl]benzoylamino}propionic acid] here?
Answer: 75 nM

Question: For `CC(C)(C)[C@H]1CC[C@@H](N(Cc2ccc(C(=O)NCCC(=O)O)cc2)NC(=O)c2ccc(F)c(F)c2)CC1` [Example 589, 3-{4-[N-(cis-4-tert-Butylcyclohexyl)-N′-(3,4-difluorobenzoyl)hydrazinomethyl]benzoylamino}propionic acid], which IC50 is on record?
Answer: 541 nM

Question: How did the IC50 turn out when `CC(C)(C)[C@H]1CC[C@@H](N(Cc2ccc(C(=O)NCCC(=O)O)cc2)NC(=O)c2cccc(OC(F)(F)F)c2)CC1` [Example 590, 3-{4-[N-(cis-4-tert-Butylcyclohexyl)-N′-(3-trifluoromethoxybenzoyl)hydrazinomethyl]benzoylamino}propionic acid] was run?
Answer: 224 nM

Question: How did the IC50 turn out when `Cc1cc(C)c(Cc2ccc(C(=O)NN(Cc3ccc(C(=O)NCCC(=O)O)cc3)[C@H]3CC[C@@H](C(C)(C)C)CC3)o2)c(C)c1` [Example 591, 3-(4-{N-(cis-4-tert-Butylcyclohexyl)-N′-[5-(2,4,6-trimethylbenzyl)furan-2-carbonyl]hydrazinomethyl}benzoylamino)propionic acid] was run?
Answer: 4 nM

Question: Which IC50 does the source give for `Cc1cc(C)c(Cc2ccc(C(=O)NN(Cc3ccc(C(=O)NCCC(=O)O)cc3)c3ccc(C4CCCCC4)cc3)o2)c(C)c1` [Example 592, 3-(4-{N-(4-Cyclohexylphenyl)-N′-[5-(2,4,6-trimethylbenzyl)furan-2-carbonyl]hydrazinomethyl}benzoylamino)propionic acid] here?
Answer: 16 nM

Question: With `O=C(Nc1nn[nH]n1)c1ccc(CN(C(=O)Nc2cc(Cl)cc(Cl)c2)c2ccc(C3=CCCCC3)cc2)cc1` [Example 593, 4-[1-(4-Cyclohex-1-enylphenyl)-3-(3,5-dichlorophenyl)ureidomethyl]-N-(2H-tetrazol-5-yl)benzamide] as the compound, how does the IC50 read?
Answer: 8 nM

Question: Which IC50 does the source give for `O=C(Nc1nn[nH]n1)c1ccc(CN(C(=O)Nc2ccc3[nH]ccc3c2)c2ccc(C3CCCCC3)cc2)cc1` [Example 594, 4-{1-(4-Cyclohexylphenyl)-3-(1H-indol-5-yl)ureidomethyl]-N-(2H-tetrazol-5-yl)benzamide] here?
Answer: 354 nM
